Tested on: STHdh Q111 cells
Test: Multiparameter high content imaging for the analysis of cell apoptosis (calcein-AM / propidium iodide / Hoechst)
Type: cell-based, mouse
Settings: for apoptosis / percentage of dead cells (propidium iodide-positive cells): STHdh Q111 cells treated with FTY720-P vs untreated (vehicle), 24 hours, serum-free medium, P-value=7.98×10^−5, two-sided student t-test, two independent experiments, twenty replicates each
From the text: FIG. 16B is a bar plot comparing percentages of dead cells in STHdh Q111 cells not treated with an analogue of S1P (FTY720-P) to STHdh Q111 cells treated with FTY720-P in accordance with some embodiments. […] In contrast, this approach inferred the underlying network of sphingolipid dysregulation and the role of S1P in diseased cells without any prior assumptions.
FIG. 17 is a series of images illustrating cell viability, morphology, and shape in accordance with some embodiments. Images 1702, 1704, and 1706 show STHdh Q7 cells, STHdh Q111 cells, and STHdh Q111 cells treated with FTY720-P, respectively, following treatment with calcein to detect viable cells and monitor changes in cell shape and morphology. Images 1708, 1710, and 1712 show STHdh Q7 cells, STHdh Q111 cells, and STHdh Q111 cells treated with FTY720-P, respectively, following treatment with propidium iodide, which stains late apoptotic cells with damaged membranes. As shown, hidden components inferred by using the described approach rescue diseased cells.
According to some embodiments, STHdhQ7/Q7 and STHdhQ111/Q111 striatal cells were trypsinized, harvested in pre-warmed growth medium and quantified using an automated cell counter (available from, e.g., Countess II, Life Technologies). Six thousand cells per well were seeded in sterile, black 96-well microplates with flat, clear bottom. After 24 hours, the complete medium was removed and replaced with phenol red- and serum-free medium containing either FTY720 phosphate (available from Sigma-Aldrich) or vehicle (e.g., DMSO, available from Sigma-Aldrich) and cells were incubated for 24 hours at 33° C. A multiple staining solution containing 1 μg/ml calcein-AM, 2 μg/ml propidium iodide and 1.5 μg/ml […] (all available from Life Technologies) was added to detect and quantify live, dead, and total cells, respectively. After 20 minutes in incubation, a Cellomics Arrayscan Platform (available from Thermo Scientific) was used for imaging acquisition. […] Cell loss was expressed as the percentage of propidium iodide-positive cells. […]

In the case of FTY720 phosphate [FTY720-P], the “apoptosis / percentage of dead cells (propidium iodide-positive cells)” value is reported as “significantly decreasing apoptosis”, the “apoptosis / percentage of dead cells (propidium iodide-positive cells)” value (listed as Phosphorylated FTY720) is reported as “significantly decrease apoptosis” and the “effect of treating diseased cells (neuroprotection)” value (STHdh cell line model of Huntington's disease, summary statement) is reported as “neuroprotective effects”.

— patent US20170046476A1, “SYSTEMS, APPARATUS, AND METHODS FOR ANALYZING AND PREDICTING CELLULAR PATHWAYS” (priority 2015, published 2017)
